{"source": "paper PMC10545747", "about": "“Development of cyclopeptide inhibitors of cGAS targeting protein-DNA interaction and phase separation” (Nature Communications, 2023)", "key": {"[1]": {"test_system": "primary bone marrow-derived macrophages (BMDMs) from C57BL/6 mice", "assay": "qPCR of Ifnb1/Cxcl10 mRNA in BMDMs (ISD or HSV-1)", "format": "cell-based, mouse", "description": "(§1) The indicated cells were stimulated with either ISD (Sangon Biotech), HSV-1 (Provided by Dr. Zhengfan Jiang), HSV60mer (Sangon Biotech), SATE-cddA[70], 2’3’-cGAMP (Invivogen, Cat# tlrl-nacga23-1), ADU-S100 (MedChemExpress, Cat# HY-12885A) or Poly(I:C) (Invivogen, Cat# tlrl-pic) after XQ2 or XQ2B treatment. Total RNA was isolated from indicated cells that incubated with the drugs for indicated time or mice tissues by using NucleoZOL reagent (MACHEREY-NAGEL) according to the manufacturer’s instructions. The quantifications of mRNA levels were carried out by real-time PCR using a PerfectStart® Uni RT&qPCR Kit (TransGen Biotech) on the QuantStudio 5 qPCR machine (Applied Biosystems). Samples were carried out in triplicate and the target CT values were normalized to GAPDH CT values. Primers of qPCR used in this study can be found in Supplementary Table S2.\nC57BL/6 6–8 weeks old wild type (WT) mice were purchased from Gempharmatech. C57BL/6 Trex1^+/- mice were purchased from Cyagen. Trex1^-/- mice were generated by further mating the male and female Trex1^+/- mice, and 8-week-old male Trex1^-/- mice were used in the experiment. Mice were housed in groups of up to 5 mice/cage at 18 °C − 24 °C ambient temperatures with 40–60% humidity. Mice were maintained on a 12 h light/ dark cycle 6 am to 6 pm. Food and water were available ad libitum. Femurs and tibias were removed from sex-matched mice of 6–8 weeks old, and the ends were clipped. Marrow was pushed from bones by using a syringe, and cell clumps were broken apart into cell particles by pipetting in PBS, and passed through a 70 μm cell strainer. Cells were resuspended in red blood cell lysis buffer (Solarbio) for 5 min after being centrifuged with 200 × g for 5 min, and were resuspended in cell culture media (DMEM) with an additional M-CSF (50 ng/ml) after centrifugation, and then were seeded into a 12-well plate. Half of the cell culture media was replaced with a fresh medium on the third day, and performed a complete media change on the fifth day. BMDMs were used for subsequent experiments after the seventh day. All the animal experiments in these studies were approved and overseen by the ethics committee of the Laboratory Animal Center of Peking University Shenzhen Graduate School in accordance with the Policy on the Care, Welfare, and Treatment of Laboratory Animals. The assigned approval or accreditation number is AP0020005.\nSupplementary Fig. 2. […] (a, b) THP1 cells were\n(c) L929, p = 0.0005 (Ifnb1),\nBMDMs, p = 0.0001 (Ifnb1), p < 0.0001 (Cxcl10).\nrepresentative of three independent experiments in (a-g). (Data are presented as mean ± SD, n = 3 independent\nSource data are provided as a Source Data file."}, "[2]": {"test_system": "Cy5-ISD (45-bp dsDNA ISD)", "assay": "Microscale thermophoresis (MST) with dsDNA", "format": "binding", "details": "Cy5-ISD 10 nM"}, "human cGAS (hcGAS)": {"target": "human cGAS (hcGAS) (Homo sapiens, UniProt Q8N884)", "sequence (Q8N884 whole entry)": "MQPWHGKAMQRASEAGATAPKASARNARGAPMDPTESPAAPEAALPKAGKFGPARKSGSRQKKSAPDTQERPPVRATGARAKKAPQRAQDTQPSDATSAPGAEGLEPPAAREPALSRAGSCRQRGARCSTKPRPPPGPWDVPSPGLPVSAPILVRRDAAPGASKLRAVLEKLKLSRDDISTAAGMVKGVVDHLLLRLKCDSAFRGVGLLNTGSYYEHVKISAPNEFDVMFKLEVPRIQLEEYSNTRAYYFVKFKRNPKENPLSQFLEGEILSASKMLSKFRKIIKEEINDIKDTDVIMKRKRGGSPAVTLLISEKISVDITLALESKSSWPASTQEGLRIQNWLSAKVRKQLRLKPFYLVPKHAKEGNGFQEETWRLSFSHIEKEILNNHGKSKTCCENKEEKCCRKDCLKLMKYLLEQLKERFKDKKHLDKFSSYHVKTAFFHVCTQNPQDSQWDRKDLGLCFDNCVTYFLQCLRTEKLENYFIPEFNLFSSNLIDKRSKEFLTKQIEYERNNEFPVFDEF", "assay": "biochemical", "details": "MST", "description": "The binding ability of XQ2 with Cy5-ISD and XQ2 with human cGAS were tested using NanoTemper Monolith NT.115 instrument (20% LED, 40% MST power) at 25 °C. Serial dilutions of XQ2 were mixed with 10 nM of Cy5-ISD or 100 nM of fluorescent labeled hcGAS, incubated for 10 min at room temperature in HEPES buffer (50 mM HEPES, pH 7.5, 200 mM NaCl, 20 mM MgCl2, 0.05% Tween 20) with or without 1 mM ATP and 0.5 mM GTP or 2 M (NH4)2SO4 (Sigma-Aldrich). Excitation was optimized by varying the power to obtain fluorescence intensities above 200 counts. Data were analyzed by using the MO.Affinity Analysis software."}, "L929 cells": {"test_system": "L929 cells", "assay": "HSV-1 cytopathogenic effect, crystal violet staining", "format": "cell-based, mouse", "details": "10 μM", "description": "L929 cells were seeded into 12-well plates at a density of 5 × 10^5 cells per well, and living cells were stained with crystal violet staining solution (Beyotime Biotechnology) according to the manufacturer’s instructions."}, "HSV-1-infected WT mice": {"test_system": "HSV-1-infected WT mice", "assay": "HSV-1 infection of WT mice (serum ELISA, brain qPCR, IHC)", "format": "in vivo, mouse", "design": "brain HSV-1 mRNA, qPCR, Fig. 6d / brain HSV-1(UL5) mRNA, qPCR, Fig. 6d: unit not given here", "description": "Fig. 6 XQ2B attenuates the host innate antiviral response in vivo. a Chemical structure of XQ2 and XQ2B. b, c WT mice (n = 7) were injected intravenously with DMSO or XQ2B (10 mg/kg) for 3 h, and then administrated intravenously with HSV-1 at 1 × 10^7 pfu per mouse for 6 h. Serum from mice was collected for ELISA analysis of the levels of IFN-β (b) and CXCL10 (c). p = 0.0013 (b); p = 0.0175 (c). d Brains from mice (n = 6) in (b, c) were collected for qPCR analysis of the induction of HSV-1 and HSV-1(UL5) mRNA. p = 0.0287 (HSV-1); p = 0.0136 (HSV1-UL5). e Brains from mice in (b, c) were collected for immunohistochemistry (IHC) analysis with an anti-HSV-1 antibody. Tissue sections were visualized using microscopy. Scale bar, 25 μm. Data are representative of two independent experiments in (b–e). […] Source data are provided as a Source Data file.\nas §1\nTHP1 cells were seeded into 96-well plates, and cell culture supernatants were collected and analyzed by ELISA kits for human IFNβ levels (R&D Systems, Cat# DY814-05) and human CXCL10 levels (R&D Systems, Cat# DY266-05) according to the manufacturer’s instructions. Mice serum was collected and analyzed by ELISA kits for mouse IFNβ levels (R&D Systems, Cat# DY8234-05) and mouse CXCL10 levels (R&D Systems, Cat# DY466-05) according to the manufacturer’s protocols.\nTissues were resected and fixed successively in 4% paraformaldehyde, and embedded in paraffin according to the standard procedure, and then sectioned into 10-μm slices and placed on positively charged microscope slides. Sections of the brain were subjected to immunohistochemical (IHC) staining with an anti-HSV-1 antibody (Abcam, 1:100) and HRP-conjugated anti-rabbit IgG antibody (Cell Signaling, Cat# 7074, 1:200) according to standard procedures. Sections of the heart, stomach, tongue, kidney and muscle were stained with hematoxylin and eosin. Tissue sections were visualized using an Olympus IX73 microscope (20× Objective)."}, "[3]": {"details": "XQ2B 10 mg/kg i.v., individual mice"}}, "note": "Values joined by “and” are separate entries in the source; they are usually repeats but may differ in a detail not shown here. Identical values can stand only once. Square brackets hold non-standard residues; d marks the D form. Peptide text beside a SMILES is read from it."}
{"molecule": "CC(C)C[C@@H]1NC(=O)[C@H](CCCNC(=N)N)NC(=O)[C@H](C(C)C)NC(=O)[C@@H]2CCCN2C(=O)[C@@H](Cc2ccccc2)NC(=O)[C@H](CC(C)C)NC(=O)[C@H](CCCNC(=N)N)NC(=O)[C@H](C(C)C)NC(=O)[C@H](C)NC(=O)[C@@H](Cc2ccccc2)NC1=O", "note": "[XQ2, Cyclo (LfAVRLfPVR)] (cyclo(L[dF]AVRL[dF]PVR))", "values": [{"measurement": "Ifnb1 and Cxcl10 expression induced by ISD and HSV-1", "setting": "[1]; 10 μM", "result": "significantly inhibited the expression of Ifnb1 and its downstream gene Cxcl10"}, {"measurement": "Cxcl10 mRNA (Fig. S2d)", "setting": "[1]; HSV-1+XQ2", "result": "143.811 and 140.79 and 131.38"}, {"measurement": "Ifnb1 mRNA (Fig. S2d)", "setting": "[1]; HSV-1+XQ2", "result": "30.4765 and 34.353 and 35.6259"}, {"measurement": "Cxcl10 mRNA (Fig. S2c)", "setting": "[1]; ISD+XQ2", "result": "62.8779 and 59.0359 and 62.3708"}, {"measurement": "Ifnb1 mRNA (Fig. S2c)", "setting": "[1]; ISD+XQ2", "result": "709.298 and 846.919 and 741.167"}, {"measurement": "Cxcl10 mRNA (Fig. S2c)", "setting": "[1]; XQ2 alone", "result": "1.406 and 1.738 and 1.597"}, {"measurement": "Cxcl10 mRNA (Fig. S2d)", "setting": "[1]; XQ2 alone", "result": "1.406 and 1.738 and 1.597"}, {"measurement": "Ifnb1 mRNA (Fig. S2c)", "setting": "[1]; XQ2 alone", "result": "0.9266 and 0.5519 and 1.072"}, {"measurement": "Ifnb1 mRNA (Fig. S2d)", "setting": "[1]; XQ2 alone", "result": "0.9266 and 0.5519 and 1.072"}, {"measurement": "binding with ISD, MST", "setting": "[2]", "result": "no binding of XQ2 with ISD"}, {"measurement": "Kd", "setting": "human cGAS (hcGAS); absence of ATP/GTP and (NH4)2SO4 (Mock)", "result": "45.3 ± 26.9", "unit": "µM"}, {"measurement": "Kd", "setting": "human cGAS (hcGAS); in the presence of (NH4)2SO4 (2M)", "result": "1.8 ± 0.6", "unit": "µM"}, {"measurement": "Kd", "setting": "human cGAS (hcGAS); in the presence of ATP (1mM) and GTP (0.5mM)", "result": "4.5 ± 1.6", "unit": "µM"}, {"measurement": "HSV-1-induced cytopathogenic effect in L929 cells", "setting": "L929 cells", "result": "promotion of XQ2 on HSV-1-induced cytopathogenic effect in mouse fibroblast L929 cells"}]}
{"molecule": "CC(C)C[C@@H]1NC(=O)[C@H](CCCNC(=N)N)NC(=O)[C@H](C(C)C)NC(=O)[C@@H]2CCCN2C(=O)[C@@H](Cc2ccccc2)NC(=O)[C@H](CC(C)C)NC(=O)[C@H](CCCNC(=N)N)NC(=O)[C@H]([C@@H](C)O)NC(=O)[C@H](C)NC(=O)[C@@H](Cc2ccccc2)NC1=O", "note": "[XQ2B] (cyclo([dF]ATRL[dF]PVRL))", "values": [{"measurement": "production of IFN-β and CXCL10 upon HSV-1 infection in mice", "setting": "HSV-1-infected WT mice; 10 mg/kg intravenous", "result": "significantly impaired the production of IFN-β and CXCL10 upon HSV-1 infection in mice"}, {"measurement": "virus infection in brain tissues of mice", "setting": "HSV-1-infected WT mice; 10 mg/kg intravenous", "result": "promoted virus infection in the brain tissues of mice"}, {"measurement": "serum IFN-β, ELISA, Fig. 6b", "setting": "HSV-1-infected WT mice; XQ2B 10 mg/kg i.v. 3 h before HSV-1 1 × 10^7 pfu i.v., 6 h, individual mice", "result": "234.609 and 247.685 and 151.05 and 229.558 and 128.472 and 521.967 and 514.758"}, {"measurement": "serum CXCL10, ELISA, Fig. 6c", "setting": "HSV-1-infected WT mice; XQ2B 10 mg/kg i.v., HSV-1 6 h, individual mice", "result": "2266.42 and 1272.19 and 1516.42 and 1969.73 and 1635.92 and 1666.83 and 2034.41"}, {"measurement": "brain HSV-1(UL5) mRNA, qPCR, Fig. 6d", "setting": "HSV-1-infected WT mice; [3]", "result": "2.362 and 11.4426 and 5.671 and 29.1839 and 18.1733 and 12.9008"}, {"measurement": "brain HSV-1 mRNA, qPCR, Fig. 6d", "setting": "HSV-1-infected WT mice; [3]", "result": "4.055 and 17.5547 and 15.5667 and 41.0988 and 9.75 and 4.86"}]}
